The values below come from patent publication US20260335456A1, “ANTIBODY-DRUG CONJUGATE HAVING CAMPTOTHECIN-BASED DRUG LINKED TO ANTIBODY HAVING LOW ANTIGEN-BINDING AFFINITY THROUGH LINKER” (PINOTBIO, INC., priority 2022, published 2026).

Data set [1] deals with wide range of cancer cell lines. Particulars: Lee et al.; cited from earlier work.
Data set [2] has as its system patients. Particulars: domestic clinical studies; cited from earlier work.
For data set [3] the following is noted: Kim et al.; doses 10 times higher than the clinically applicable dose; cited from earlier work.
Data set [4] in a line: Lactone to carboxylate form conversion in pH 7.4. It counts as physicochemical. As to the method:
3-2. Lactone to Carboxylate Form Conversion in pH 7.4
Afterwards, it was centrifuged at 4 °C, 2 minutes, and 13,000 RCF conditions, and the supernatant was used as a sample.
The column used was Cortecs C18 2.7 μm, 4.6×50 mm Column, and analysis was conducted under the following conditions. 1) 20 minutes: 5% B, 2) sample injection, 3) 2 minutes: 5% B, 4) 10 minutes: 5% B→50% B, 5) 1 minute: 50% B.
In order to measure changes over time, the sample chamber was maintained at 37 °C, and the sample was set to be injected every measurement time. The measurement times were 0, 20, 40, 60, 90, 120, 180, 240, 300, 360, 480, 600 and 720 minutes.
The content was calculated from the peak area of each lactone and carboxylate. Since the absorption coefficients of lactone and carboxylate are different, the lactone area was obtained by multiplying the carboxylate area by the equation below.

The subject of a further data set is A549. Kind of data set: Cell viability assay in A549. Type of data set: cell-based. Particulars: A549, FIG. 9. The protocol: After 24 hours, 100 μL of the drug at 9 concentrations (serial dilution of 1/5 from 1,000 nM) was treated with the cells. […] In this case, a control group that was not treated with the drug (drug concentration 0) was also prepared. It was cultured at constant temperature (37 °C, 5% CO2) for 3 or 6 days. 100 μL of CellTiter-Glo reagent (using CellTiter-Glo® Luminescent Cell Viability Assay kit (Promega, G7571)) was added to each well and pipetted. After incubation at constant temperature (RT) for 10 minutes, luminescence was measured.

Data set [5] relates to MDA-MB-453 (HER2++) and FaDu (HER2+) cell lines. Put plainly: Cell viability test in MDA-MB-453 and FaDu. Type of data set: cell-based. Particulars: 3 days, FIG. 10. The protocol:
Cell viability assay was performed on MDA-MB-453 (HER2++) cell line and FaDu (HER2+) cell line in the same manner as Example 1-2.

The subject of the next data set is FaDu cell line. Kind of data set: Western blot of DDX5 and anti-apoptotic proteins in FaDu. The settings on record: 0, 10, 100 nM. It counts as cell-based. The protocol: 1-1: Confirmation of Suppressive Activity of Expression of Cancer-Related Survival Genes of DDX5, Survivin, Mcl-1, XIAP and cIAP2 Through Western Blot
200,000 FaDu cell lines were seeded per well in a 6-well plate and incubated at constant temperature (37 °C, 5% CO2). […] It was incubated at constant temperature (37 °C, 5% CO2) for 24 hours. The well was treated with 100 μL of RIPA buffer dissolved in protease inhibitor cocktail. […] Protein concentration was determined through protein assay.
Electrophoresis was performed on the gel at 60V.
7 sheets of activated filter paper, PVDF membrane, gel and 7 sheets of filter paper were placed in order in the cassettes of the Trans-Blot® Turbo™ Transfer System, and the lid was closed, and after being inserted into the machine, the protocol started.
The transferred membrane was immersed in blocking buffer and incubated at constant temperature (RT, 1h). Next, it was incubated at 4 °C overnight in primary antibody solution. It was rinsed with TBST buffer for 3 minutes (repeated 3 times). Incubation was performed (RT, 1h) in a secondary antibody solution conjugated with HRP. It was rinsed with TBST buffer for 3 minutes (repeated 3 times).
After soaking the membrane in the ECL substrate for 3 to 5 minutes, the signal was determined by using the ChemiDoc™ MP Imaging System.

In a further data set the test system is A549 cell line. Kind of data set: Western blot of DDX5 and anti-apoptotic proteins in A549. It counts as cell-based. (In general: A western blot detects proteins with antibodies after separation by electrophoresis.)
Data set [6] is described as follows: PBX-7016 pharmacokinetic profile in NOD SCID mice. Type of data set: in vivo.
Another data set has as its target T1, ABCG2 (Homo sapiens, UniProt Q9UNQ0).
T1 sequence (Q9UNQ0 1-655): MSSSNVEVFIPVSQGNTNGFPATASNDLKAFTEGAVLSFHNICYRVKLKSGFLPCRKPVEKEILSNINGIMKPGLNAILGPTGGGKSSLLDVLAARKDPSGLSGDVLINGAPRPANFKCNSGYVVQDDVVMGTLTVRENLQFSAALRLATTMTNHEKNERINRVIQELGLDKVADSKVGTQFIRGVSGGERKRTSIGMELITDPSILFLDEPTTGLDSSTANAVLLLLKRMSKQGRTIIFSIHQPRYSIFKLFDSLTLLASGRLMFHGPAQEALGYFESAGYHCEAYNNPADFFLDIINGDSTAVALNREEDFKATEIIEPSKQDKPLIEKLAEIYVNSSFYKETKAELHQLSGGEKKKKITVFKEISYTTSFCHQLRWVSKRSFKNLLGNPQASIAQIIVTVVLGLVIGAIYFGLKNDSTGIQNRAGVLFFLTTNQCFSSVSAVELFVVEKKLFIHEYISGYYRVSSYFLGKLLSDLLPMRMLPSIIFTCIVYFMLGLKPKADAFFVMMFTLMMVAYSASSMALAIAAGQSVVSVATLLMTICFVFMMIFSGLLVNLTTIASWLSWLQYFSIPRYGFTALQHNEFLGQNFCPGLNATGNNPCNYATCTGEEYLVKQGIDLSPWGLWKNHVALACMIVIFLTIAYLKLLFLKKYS
Kind of data set: Sensitivity to ABCG2 transporter. Type of data set: cell-based.

In the next data set the test system is several cell lines. The settings on record: cited from earlier work.
The subject of another data set is relapsed glioblastoma. The settings on record: cited from earlier work.
The test system of data set [7] is EGFR. The settings on record: cited from earlier work.
Data set [8] concerns patients. The settings on record: phase 1 studies; cited from earlier work.
The subject of data set [9] is normal skin and kidney cells. Particulars: compared with cetuximab; cited from earlier work.
Data set [10] concerns patients. The settings on record: cited from earlier work.
Another data set has as its target T2, Trop2 (Homo sapiens, UniProt P09758).
T2 sequence (P09758 27-323): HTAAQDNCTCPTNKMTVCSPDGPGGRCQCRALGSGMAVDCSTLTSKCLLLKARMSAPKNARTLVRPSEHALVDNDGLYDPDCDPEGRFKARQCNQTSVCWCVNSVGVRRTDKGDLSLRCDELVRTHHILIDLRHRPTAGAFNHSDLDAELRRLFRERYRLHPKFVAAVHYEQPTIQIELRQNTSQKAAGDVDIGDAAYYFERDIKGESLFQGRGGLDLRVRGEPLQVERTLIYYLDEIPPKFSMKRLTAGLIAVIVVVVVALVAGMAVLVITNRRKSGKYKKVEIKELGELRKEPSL
Kind of data set: PBX-001 in vitro and in vivo efficacy versus Trodelvy. The settings on record: FIGS. 11 to 13.

The subject of data set [11] is cells with an ABCG2 efflux pump. Put plainly: ABCG2 efflux pump resistance, PBX-001 versus Trodelvy. It counts as cell-based.
Another data set deals with FaDu Xenograft model. Put plainly: PBX-001 in FaDu Xenograft model. Type of data set: in vivo. Particulars: DAR 8, FIGS. 12 and 13.
A further data set deals with non-human primate. Kind of data set: PBX-001 non-human primate toxicity study. Type of data set: in vivo.
Another data set concerns liver. The settings on record: versus parent hRS7 IgG; U.S. Pat. No. 9,629,926 B; cited from earlier work.
Data set [12] relates to EGFR. The settings on record: cited from earlier work. This is another data set of the same source.

With `CC[C@@]1(O)C(=O)OCc2c1cc1n(c2=O)Cc2c-1nc1ccccc1c2CCNC(C)C` [CKD-602], the “anticancer effects versus camptothecin and topotecan” value in [1] is “superior anticancer effects compared to camptothecin and topotecan”. In addition, the “side effects in clinical studies” value in the data set on patients [2] was “only reversible and controllable side effects such as neutropenia and leukopenia”. In addition, the adverse drug reactions result in data set [3] is on record as “no adverse drug reactions other than increased gastric secretion”.

Turning to `CC[C@@]1(O)C(=O)OCc2c1cc1n(c2=O)Cc2c-1nc1cc3c(c4c1c2[C@@H](NC(=O)[C@@H](C)O)CC4)OCO3` [PBX-7016], in data set [4] (pH 7.4, 37 °C), the “rate of conversion from lactone to carboxylate form” value was found to be 0.8 % per minute. In data set [4] (pH 7.4, 37 °C, PBS with 10% DMSO, read-out: carboxylate form formed), the degraded at 3 µM was > 86%. For the same compound, the “lactone to carboxylate conversion versus reference compounds” value in [4] (pH 7.4, reference: exatecan, DXd, SN-38, FL118) is “faster and at a higher rate than other reference compounds”. The “efficacy / IC50 in ABCG2-overexpressing cells” value in the data set on A549 is given as “still maintained strong efficacy”. In addition, the “IC50 compared to Dxd” value in data set [5] is “IC50 of the same or higher level than Dxd”. For the same compound, the DDX5 degradation ranking result is “followed by 7011, 7016 and 7014” in the data set on FaDu cell line (FaDu and A549); “followed by 7011, 7016 and 7014” in the data set on A549 cell line (FaDu and A549, 0, 10, 100 nM). Further, the “expression of anti-apoptotic proteins” value in the data set on FaDu cell line (Survivin, cIAP2, Mcl-1, XIAP, 24 hours) was “decrease in the expression of Survivin, cIAP2, Mcl-1 and XIAP as the concentration increased”. Moreover, in the data set with A549 cell line, the “dual mechanism (topoisomerase I inhibition and DDX5 degradation)” value is “dual MoA that acts as a degrader of DDX5 (p68)”. Moreover, the DDX5 inhibition result in the data set with A549 cell line (FIGS. 7 and 8) is reported as “inhibits DDX5 in a concentration-dependent manner”. For the same compound, the “Survivin, Mcl-1 inhibition” value in the data set with A549 cell line (FIGS. 7 and 8) is “observed to inhibit Survivin, Mcl-1”. Also, the “comparison with PBX-7014” value in the data set with A549 cell line (FIGS. 7 and 8) is recorded as “worked better than PBX-7014”. The “plasma concentration, individual mice” value in data set [6] (IP 1 mg/kg, 4 h, Mouse 4-6) is “BLOQ”; in data set [6] (IP 1 mg/kg, 12 h, Mouse 4-6), “BLOQ”; in data set [6] (IP 1 mg/kg, 24 h, Mouse 4-6), “BLOQ”; in data set [6] (IP 1 mg/kg, 48 h, Mouse 4-6) it was “BLOQ”; in data set [6] (IV 1 mg/kg, 4 h, Mouse 1-3), “BLOQ”; in data set [6] (IV 1 mg/kg, 12 h, Mouse 1-3), “BLOQ”. For the same compound, the “plasma concentration, individual mice” value in data set [6] (IV 1 mg/kg, 24 h, Mouse 1-3) was “BLOQ”; in [6] (IV 1 mg/kg, 48 h, Mouse 1-3) it was “BLOQ”. Besides, in data set [6] (intravascular or intraperitoneal, mice), the “clearance from the blood” value is “cleared from the blood very quickly”.

Consider `CCc1c2c(nc3ccc(O)cc13)-c1cc3c(c(=O)n1C2)COC(=O)[C@]3(O)CC` [SN-38], for which the “sensitivity to ABCG2” value on ABCG2 is reported as “show resistance in the way that the drug is released out of the cell due to overexpression of the ABCG2 Transporter”. Besides, in the data set with several cell lines, the IC50 result is given as “nanomolar range”.

As to ABT-414: ADC targeting EGFR variant III, the monotherapy efficacy entry in the data set on relapsed glioblastoma is reported as “promising monotherapy efficacy”.

As for “ABX-EGF: fully humanized IgG2 monoclonal antibody to EGFR”, the “affinity for EGFR versus cetuximab” value in the data set with EGFR [7] is recorded as “higher affinity for EGFR than cetuximab”. For the same compound, the most common toxicity result with patients [8] is “skin toxicity”.

On to “Nimotuzumab: humanized IgG1 EGFR-targeting antibody”, for which the “binding to normal skin and kidney cells” value in [9] is reported as “much less binding than cetuximab”. Moreover, the side effects severity result with patients [10] (humans) is “only mild to moderate in severity”. The “incidence of severe acneiform rash and gastrointestinal mucosal toxicity” value in the data set on patients [10] (patients) is recorded as “much lower incidence”.

As to “PBX-001: ADC of humanized anti-Trop2 antibody hRS7, FL118 and CL2A linker system”, the “in vitro and in vivo efficacy versus Trodelvy” value in the data set with Trop2 is given as “better efficacy than Trodelvy”. Moreover, the “resistance through ABCG2 efflux pump” value in [11] is listed as “not affected”. Moreover, the “anticancer efficacy and weight loss” value in the data set with FaDu Xenograft model is “excellent anticancer efficacy without weight loss”. Moreover, in the data set on non-human primate, the safety result is “excellent safety”.

Consider “hRS7-CL2A-SN-38: Trop-2 ADC of hRS7 with CL2A-SN-38”, for which the liver uptake entry in the data set on liver is listed as “two-fold higher liver uptake”.

Consider “panitumumab: antibody drug targeting EGFR”, for which the “binding affinity relative to nimotuzumab” value in the data set with EGFR [12] was “more than 10 times”.
